Values quoted from earlier work, collected in patent US20120209125A1, “Singlet Oxygen Production and Dosimetry for Photodynamic Therapy” (PHYSICAL SCIENCES, INC., priority 2011, published 2012).

Settings: isoflurane gas anesthesia; 'minimally metabolized'

- fraction metabolized by the liver: < 0.17%
SMILES: FC(F)OC(Cl)C(F)(F)F (stereo not shown) [isoflurane]
